# Laboratory results reported in publication PMC8195987, “Structural basis for plazomicin antibiotic action and resistance” (Communications Biology, 2021).
# Biological target: T1, AAC(2′)-Ia (Providencia stuartii, UniProt Q52424)
# T1 construct: synthetic gene in pET-15b, E. coli BL21(DE3); N-terminal His-tag removed with thrombin; homodimer
# Assay: X-ray crystal structure
# Format: binding
# Conditions: product complex with acetylated plazomicin, 1.95 Å; formed from acetyl-CoA during crystallization; active site
# T1 sequence (Q52424 whole entry): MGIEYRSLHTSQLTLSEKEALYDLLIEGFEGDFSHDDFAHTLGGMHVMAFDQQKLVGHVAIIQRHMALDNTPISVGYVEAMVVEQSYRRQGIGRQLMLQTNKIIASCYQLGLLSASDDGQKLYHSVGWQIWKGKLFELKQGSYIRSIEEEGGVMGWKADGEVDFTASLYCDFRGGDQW
compound,measurement,value
CC(C)(COP(=O)(O)OP(=O)(O)OC[C@H]1O[C@@H](n2cnc3c(N)ncnc32)[C@H](O)[C@@H]1OP(=O)(O)O)[C@@H](O)C(=O)NCCC(=O)NCCS [CoA],X-ray crystal structure,identified the enzymatically modified plazomicin and CoA in the active site
